Assay results reported in patent US20220146526A1, “METHOD FOR EVALUATING SAMPLE, ANALYSIS METHOD, METHOD FOR DETECTING DEGRADED SAMPLE, MARKER FOR DETECTING DEGRADED BLOOD PLASMA SAMPLE, AND MARKER FOR DETECTING DEGRADED SERUM SAMPLE” (SHIMADZU CORPORATION, priority 2019, published 2022).

How the values were obtained:
Assay type in all cases: physicochemical, human
[1] = LC/MS of blood plasma sample: time from blood collection to centrifugation (Table D); conditions: for Rate of increase or decrease: detection intensity relative to 1 at 15 minutes; for Rate of increase or decrease / Increase or decrease: blood collection to centrifugation; for Increase or decrease: detection intensity
Procedure, shortened: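 Detection intensities are expressed relative to samples centrifuged 15 min after collection (=1), measured by electrospray LC/MS in MRM mode (Discovery HS F5-3, 40 °C, formic acid water/acetonitrile gradient at 0.25 mL/min). EDTA blood from a healthy donor was held at 4 °C, centrifuged at 4 °C, 3000 rpm, 15 min, and plasma frozen.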

[2] = LC/MS of blood plasma sample: time from blood collection to cooling of blood (Table E); parameters: key to Rate of increase or decrease / Rate of increase or decrease (first value, increase): detection intensity relative to ≤1 min to cooling = 1; conditions: for Rate of increase or decrease: detection intensity relative to 1 at 1 minute or less, blood collection to cooling 5 minutes; for Increase or decrease: detection intensity, blood collection to cooling 5 minutes or more vs 1 minute or less
Protocol: At room temperature, 5 mL of blood from a healthy subject was taken into a blood-collecting vessel containing EDTA, and the blood-collecting vessel was inverted for mixing, then cooled, and allowed to stand at 4° C. Here, in order to investigate how the detection intensity of molecules contained in the sample was affected in a case where the time to cooling was set to 5 minutes or more as compared to that in a case where the time to cooling was set to 1 minute or less, preparations were performed under both the former condition and the latter condition. After standing, the blood sample was subjected to centrifugation under a condition of 4° C., 3000 rpm, and 15 minutes. […] After centrifugation, the blood-collecting vessel was left to stand at room temperature for 30 minutes, and the blood plasma was isolated during this 30 minutes. The obtained blood plasma sample was frozen and stored. Here, in order to investigate how the detection intensity of molecules contained in the sample was affected in cases where freezing and thawing was performed 4 times, 6 times, and 10 times after freezing as compared to that in a case where freezing and thawing was performed 2 times after freezing, freezing and thawing was performed under the respective conditions of 2, 4, 6, and 10 times.
Frozen blood plasma samples and serum samples were subjected to GC/MS or LC/MS. In GC/MS, the blood plasma samples and serum samples were subjected to methoxymation and trimethylsilylation and then introduced to GC-MS.
Analysis column: Discovery HS F5-3 (inner diameter of 2.1 mm, length of 150 mm, film thickness of 3 μm) (Sigma-Aldrich)
Column temperature: 40° C.
(A) 0.1% formic acid (dissolved in water)
(B) 0.1% formic acid (dissolved in acetonitrile)
Flow velocity: 0.25 mL/min
Ionization method: electrospray
Temperature: • Desolvation Line (DL) temperature: 250° C. • Heat block temperature: 400° C. • Interface temperature: 300° C.
Gas flow rate: • Nebulizer gas flow rate: 3.0 L/min • Drying gas flow rate: 10.0 L/min • Heating gas flow rate: 10.0 L/min
Mode: multiple reaction monitoring (MRM)
The rate of increase or decrease in Table E is the value of detection intensity relative to 1 that is the detection intensity in a case where the time from blood collection to cooling is set to 1 minute or less.

[3] = LC/MS of blood plasma sample: number of times of freezing and thawing (Table F); conditions: for Rate of increase or decrease: detection intensity relative to 1 at 2 times; for Increase or decrease: detection intensity
Procedure, shortened: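 Values are detection intensities normalised to 1 for plasma thawed twice, compared against 4, 6 and 10 freeze-thaw cycles. Measured by electrospray LC/MS in MRM mode, formic acid water/acetonitrile mobile phase, column at 40° C. Plasma came from EDTA blood, cooled to 4° C and spun at 3000 rpm for 15 min.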

[4] = GC/MS of serum sample: time from blood collection to centrifugation (Table G); conditions: blood collection to centrifugation
Procedure, shortened: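 Values express detection intensity as a ratio to the sample centrifuged 15 minutes after blood collection (taken as 1). Serum was derivatized by methoxymation and trimethylsilylation, then analysed by electron-ionization GC/MS using multiple reaction monitoring on a BPX5 column ramped from 60 to 330° C.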

[5] = GC/MS of serum sample: time from centrifugation to isolation (Table H)
Procedure, shortened: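 Values are GC/MS (EI, MRM) detection intensities of methoxymated/trimethylsilylated serum, normalised to 1 for the 30-min sample. Serum was isolated 30 min, 1 h or 6 h after room-temperature centrifugation (3500 rpm, 5 min) of blood.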

[6] = GC/MS of serum sample: number of times of freezing and thawing (Table I); conditions: serum, GC/MS
Procedure, shortened: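 Detection intensities are ratios to the value after two freeze–thaw cycles, which is set as 1, compared against 4, 6 and 10 cycles. Analysis used methoxymation and trimethylsilylation derivatization, then GC/MS with EI ionization and multiple reaction monitoring on a BPX5 column. Serum came from blood held at room temperature and spun at 3500 rpm for 5 min.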

[7] = LC/MS of serum sample: time from blood collection to centrifugation (Table J)
Procedure, shortened: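 Detection intensities are expressed relative to 1 for samples centrifuged 15 min after blood collection; centrifugation was at room temperature, 3500 rpm, 5 min. Frozen serum was run by electrospray LC-MS in MRM mode, with 0.1% formic acid water/acetonitrile at 0.25 mL/min on a 40 °C F5 column.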

[8] = freezing and thawing 4 times vs 2 times

SMILES: NCCCC(=O)O [4-Aminobutyric acid]
- Rate of increase or decrease ([1]; after 6 hours): 0.70
- Increase or decrease ([1]; after 6 hours vs 15 minutes): Decrease
- Rate of increase or decrease [2]: 1.50
- Increase or decrease [2]: Increase
- Rate of increase or decrease ([3]; freezing and thawing 4 times): 1.76
- Increase or decrease [3, 8]: Increase

SMILES: Nc1nc2c(ncn2[C@@H]2O[C@H](COP(=O)(O)O)[C@@H](O)[C@H]2O)c(=O)[nH]1 [Guanosine monophosphate]
- Rate of increase or decrease ([1]; after 4 hours): 1.89
- Increase or decrease ([1]; after 4 hours vs 15 minutes): Increase
- Increase or decrease [2]: Different from individual
- Rate of increase or decrease (second value, decrease) ([2]; different from individual to individual, individuals with decrease, relative to 1 at 1 minute or less, collection to cooling 5 minutes): 0.59
- Rate of increase or decrease (first value, increase) ([2]; different from individual to individual, individuals with increase, relative to 1 at 1 minute or less, collection to cooling 5 minutes): 1.47
- Rate of increase or decrease ([3]; freezing and thawing 6 times): 1.95
- Increase or decrease ([3]; freezing and thawing 6 times vs 2 times): Increase

SMILES: Nc1ccn([C@@H]2O[C@H](COP(=O)(O)O)[C@@H](O)[C@H]2O)c(=O)n1 [Cytidine monophosphate]
- Rate of increase or decrease ([1]; after 4 hours): 1.75
- Increase or decrease ([1]; after 4 hours vs 15 minutes): Increase
- Rate of increase or decrease [2]: 1.34
- Increase or decrease [2]: Increase
- Rate of increase or decrease ([3]; freezing and thawing 4 times): 1.98
- Increase or decrease [3, 8]: Increase

SMILES: C[S+](CC[C@H](N)C(=O)[O-])C[C@H]1O[C@@H](n2cnc3c(N)ncnc32)[C@H](O)[C@@H]1O (some centres unmarked) [S-adenosylmethionine]
- Rate of increase or decrease ([1]; after 6 hours): 0.62
- Increase or decrease ([1]; after 6 hours vs 15 minutes): Decrease
- Rate of increase or decrease [2]: 1.60
- Increase or decrease [2]: Increase
- Rate of increase or decrease ([3]; freezing and thawing 4 times): 1.33
- Increase or decrease [3, 8]: Increase

SMILES: NCCc1ccc(O)c(O)c1 [Dopamine]
- Rate of increase or decrease ([1]; after 6 hours): 0.53
- Increase or decrease ([1]; after 6 hours vs 15 minutes): Decrease
- Rate of increase or decrease [2]: 1.43
- Increase or decrease [2]: Increase
- Rate of increase or decrease ([4]; detection intensity relative to 1 at 15 minutes, after 4 hours): 1.50
- Increase or decrease ([4]; detection intensity, after 4 hours vs 15 minutes): Increase
- Rate of increase or decrease ([5]; detection intensity relative to 1 at 30 minutes, after 1 hour): 0.64
- Increase or decrease ([5]; detection intensity, after 1 hour vs 30 minutes): Decrease
- Rate of increase or decrease ([6]; detection intensity relative to 1 at 2 times, freezing and thawing 4 times): 0.53
- Increase or decrease ([6]; detection intensity, freezing and thawing 4 times vs 2 times): Decrease
- Rate of increase or decrease ([7]; after 12 hours from blood collection to centrifugation, detection intensity relative to 1 at 15 minutes): 1.39
- Increase or decrease ([7]; serum sample, LC/MS, detection intensity vs 15 minutes from blood collection to centrifugation): Increase
- Time when compound is affected ([7]; serum sample, LC/MS, time from blood collection to centrifugation, detection intensity changed by 30% or more vs 15 minutes): After 12 hours

SMILES: N[C@@H](CCC(=O)N[C@@H](CS)C(=O)O)C(=O)O [5-Glutamylcysteine]
- Increase or decrease ([1]; after 4 hours vs 15 minutes): Different from individual
- Rate of increase or decrease (second value, decrease) ([1]; different from individual to individual, individuals with decrease, relative to 1 at 15 minutes, collection to centrifugation, after 4 hours): 0.70
- Rate of increase or decrease (first value, increase) ([1]; different from individual to individual, individuals with increase, relative to 1 at 15 minutes, collection to centrifugation, after 4 hours): 1.79
- Rate of increase or decrease [2]: 1.33
- Increase or decrease [2]: Increase
- Increase or decrease [3, 8]: Increase
